# Results taken from ChEMBL document CHEMBL5244240, “MmpL3 inhibitors as antituberculosis drugs” (Eur J Med Chem, 2020).
# Legend:
# [1] = Clearance in mouse microsomes; assay type: ADME, Microsome
# [2] = tested on: Mycobacterium tuberculosis; test: Antitubercular activity against Mycobacterium tuberculosis H37Rv; assay type: functional
# [3] = tested on: Mycobacteroides abscessus; test: Antimycobacterial activity against Mycobacterium abscessus smooth variant; assay type: functional
# [4] = tested on: Mycobacteroides abscessus; test: Antimycobacterial activity against Mycobacterium abscessus rough variant; assay type: functional
# [5] = Elimination half life in mouse at 25 mg/kg, po; assay type: ADME, organism-based; settings: in vivo, read-out: beta t1/2 (converted)
# [6] = Volume of distribution at steady state in mouse at 25 mg/kg, po; assay type: ADME, organism-based; settings: in vivo
# [7] = Clearance in mouse at 25 mg/kg, po; assay type: ADME, organism-based; settings: in vivo
# [8] = Tmax in mouse at 25 mg/kg, po; assay type: ADME, organism-based; settings: in vivo
# [9] = tested on: Mycobacterium tuberculosis; test: Antitubercular activity against non replicating Mycobacterium tuberculosis bacilli by low oxygen recovery assay; assay type: functional
# [10] = tested on: Mycobacterium tuberculosis; test: Antitubercular activity against replicating Mycobacterium tuberculosis bacilli; assay type: functional
# [11] = tested on: Mycobacteroides abscessus; test: Antitubercular activity against Mycobacterium abscessus CIP104536; assay type: functional
# [12] = tested on: Mycobacterium tuberculosis; test: Antitubercular activity against Mycobacterium tuberculosis H37Rv infected in mouse assessed as log reduction in CFU in lung at 50 mg/kg; assay type: functional
# [13] = tested on: Mycobacterium tuberculosis; test: Antitubercular activity against Mycobacterium tuberculosis H37Rv infected in mouse assessed as log reduction in CFU in lung at 100 mg/kg; assay type: functional
# [14] = tested on: Mycobacterium tuberculosis; test: Antitubercular activity against Mycobacterium tuberculosis infected in mouse assessed as log reduction in bacterial burden in lung at 300 mg/kg; assay type: functional
# [15] = tested on: Mycobacterium tuberculosis; test: Antitubercular activity against Mycobacterium tuberculosis infected in mouse assessed as log reduction in bacterial burden in lung at 100 mg/kg; assay type: functional
# [16] = tested on: Mycobacterium tuberculosis; test: Antitubercular activity against Mycobacterium tuberculosis […]; assay type: functional
# [17] = tested on: Mycobacterium tuberculosis; test: Antitubercular activity against Mycobacterium tuberculosis H37Rv infected in mouse macrophage; assay type: functional
# [18] = tested on: Mycobacterium tuberculosis; test: Bactericidal activity against replicating Mycobacterium tuberculosis H37Rv; assay type: functional
# [19] = tested on: Mycobacterium tuberculosis; test: Antitubercular activity against replicating Mycobacterium tuberculosis H37Rv; assay type: functional
# [20] = tested on: Mycobacterium tuberculosis; test: Antitubercular activity against non-replicating Mycobacterium tuberculosis H37Rv; assay type: functional
structure (smiles),measurement,setting,value
COc1ccc(-c2cc(CN3CCSCC3)c(C)n2-c2ccc(F)cc2)cc1,CLH,[1],18.76 mL/min/g
same,MIC,[2],0.2 µM
Cc1ccccc1CN1CCC(O)(c2ccc(Cl)c(C(F)(F)F)c2)CC1,MIC,[3],0.32 µM
same,MIC,[4],0.32 µM
c1cc2c(s1)CCOC21CCN(Cc2ccc3c(c2)OCCO3)CC1,CLH,[1],> 30 mL/min/g
same,MIC,[2],0.3 µM
CC1(C)CCC(NC(=O)c2cc3c(F)cc(F)cc3[nH]2)CC1,half-life,[5],4.47 h
same,Vdss,[6],2.24 L/kg
same,CL/F,[7],18.7 mL/min/kg
same,Tmax,[8],1.5 h
CC1(C)CCC(NC(=O)c2cc3c(Cl)cc(Cl)cc3[nH]2)CC1,half-life,[5],5.25 h
same,Vdss,[6],4.11 L/kg
same,CL/F,[7],18.1 mL/min/kg
same,Tmax,[8],1.5 h
Cc1c(CN2CCN(C)CC2)cc(-c2ccc(Cl)cc2)n1-c1ccc(Cl)cc1,MIC,[9],18.5 µM
same,MIC,[10],5 µM
Cc1cc2nc(CCC3CCCCC3)[nH]c2cc1C,MIC,[11],0.125 µg/mL
same,MIC,[2],0.75 µg/mL
CCCn1cnc2cc(NCc3ccc(Cl)cc3Cl)ccc21,IC90,[2],16 µM
Cc1c(CN2CCOCC2)cc(-c2ccc(C(C)C)cc2)n1-c1ccc(F)cc1,CLH,[1],1.4 mL/min/g
same,MIC,[2],0.12 µM
FC(F)(F)Oc1ccc(Oc2ccc(CN3CCC4(CC3)OCCc3sccc34)cc2)cc1,log(activity),[12],2.3
same,CLH,[1],1.2 mL/min/g
same,MIC,[2],0.06 µM
same,log(activity),[13],2.7
CCc1ccc([C@H]2C[C@@H](C(F)(F)F)n3ncc(C(=O)NCc4ccc5c(c4)OCO5)c3N2)cc1,log(activity),[14],2.2
same,log(activity),[15],1.5
same,MIC,[2],0.16 µM
O=C(NCCc1ccc(Cl)cc1)C1(c2cccs2)CCCCC1,MIC99,[16],19.3 µM
CCc1ccc([C@H]2C[C@@H](C(F)(F)F)n3ncc(C(=O)NCc4ccc(OC)cc4)c3N2)cc1,MIC,[2],0.3 µM
same,MIC80,[17],0.16 µM
FC(F)(F)Oc1ccc(Oc2ccc(CNCCNC3C4CC5CC(C4)CC3C5)cc2)cc1 (stereo not given),MBC99,[18],5 µM
same,MIC99,[19],2.5 µM
CC(C)=CCC/C(C)=C\CNCCNC1C2CC3CC(C2)CC1C3 (stereo not given),MIC,[20],0.7 µM
same,MIC,[19],0.7 µM
